Measurements from article PMC10178506, “Chemical and Biological Evaluation of Novel 1H-Chromeno[3,2-c]pyridine Derivatives as MAO Inhibitors Endowed with Potential Anticancer Activity” (International Journal of Molecular Sciences, 2023).
Values joined by “and” are separate entries in the source; they are usually repeats but may differ in a detail not shown here. Equal values may be shown once. Read-outs that look alike come from different tables or passages of the source.

Tests used:
human recombinant AChE = target: T1, human recombinant AChE (Homo sapiens, UniProt P22303); assay: biochemical; conditions: for inhibition at 10 µM: read-out: hAChE % inhibition at 10 μM
T1 construct: purchased Sigma Aldrich (Milan, Italy)
Procedure: (§1) Human isoforms of MAOs (from baculovirus-infected insect cells) and ChEs (human recombinant AChE and BChE from human serum), purchased from Sigma Aldrich (Milan, Italy), were used for inhibition assays. Experiments were performed in 96-well plates (Greiner Bio-One, Kremsmünster, Austria) on the Infinite M1000 Pro plate reader (Tecan, Cernusco s.N., Italy), using already published protocols.
(§2) The inhibition of human recombinant AChE or BChE from human serum was determined by applying Ellman’s spectrophotometric method as described in previously reported protocols. The AChE activity was determined in an assay solution containing AChE (0.09 U/mL), 5,5′-dithiobis(2-nitrobenzoic acid) (i.e., the Ellman’s reagent, 0.33 mM), the test compound (10 μM concentration, or seven scalar concentrations for compounds achieving > 60% enzyme inhibition at 10 μM), in 0.1 M PBS pH 8.0. […] The BChE inhibitory activity was similarly determined by using BChE (0.09 U/mL) and butyrylthiocholine iodide (5 μM) as the substrate.
(§3) The IC50 values, Michaelis–Menten curve fitting and inhibition constant (Ki) were calculated by nonlinear regression, using Prism software.

BChE from human serum = target: T2, BChE from human serum (Homo sapiens, UniProt P06276); assay: biochemical; conditions: 10 μM concentration, mean ± S.D. (n = 3), n.i. = no inhibition at 10 μM; for inhibition at 10 µM: read-out: hBChE % inhibition at 10 μM
T2 construct: ChEs (human recombinant AChE and BChE from human serum), purchased from Sigma Aldrich (Milan, Italy); purchased Sigma Aldrich (Milan, Italy); host or cells: human serum (natural source)
Procedure: as §1, §2, §3

[1] = system: MCF-7, human breast carcinoma cell; assay: Antiproliferative activity, sulforhodamine-B (SRB) assay, MCF-7; assay type: cell-based; conditions: Homo sapiens, read-out: Antiproliferative activity IC50, MCF-7
Procedure: (§4) The SK-OV-3 ovarian cancer cell line, MCF-7 breast cancer line and HCT-116 colon cancer cell line were obtained from the National Cancer Institute, Biological Testing Branch (Frederick, MD, USA), and maintained in the logarithmic phase at 37 °C in a 5% CO2 humidified air in RPMI 1640 medium supplemented with 10% fetal calf serum, 2 mM glutamine, penicillin (100 U/mL) and streptomycin (0.1 mg/mL).
(§5) The growth inhibitory effects of compounds under investigation were compared to those of cisplatin (CDDP) and doxorubicin (DXR), used as positive controls, and evaluated by using the sulforhodamine-B (SRB) assay. Briefly, cells were seeded into 96-well microtiter plates in 100 µL of the appropriate culture medium at plating densities at 2500, 5000 and 8000 cells/well for MCF-7, HCT-116 and SKOV-3, respectively, depending upon the doubling time of individual cell lines. After seeding, microtiter plates were incubated at 37 °C for 24 h before adding the test compounds. After 24 h, several samples of each cell line were fixed in situ with cold trichloroacetic acid (TCA) to represent a measurement of the cell population at the time of compound addition. The test compounds were freshly dissolved in dimethyl sulfoxide (DMSO, 10^−2 M) and gradually diluted to different concentrations (0.79–50 µM) with a complete medium, so that the maximum DMSO/well ratio was 0.5% v/v. After the addition of different compound concentrations to triplicate wells, the plates were further incubated at 37 °C for 72 h. Cells were fixed in situ by the gentle addition of 50 µL of cold 50% w/v TCA (final concentration 10%) and incubated for 1 h at 4 °C. The supernatant was discarded, and the plates were washed with tap water and air-dried. SRB solution (100 µL) at 0.4% (w/v) in 1% acetic acid was added to each well, and the plates were incubated for 30 min at room temperature. After staining, the unbound dye was removed by washing with 1% acetic acid and the plates were air-dried. The bound stain was then solubilized with 10mM Trizma base and the absorbance was read on an automatic plate reader at 570 nm.

human recombinant MAO A = target: T3, human recombinant MAO A (Homo sapiens, UniProt P21397); assay: biochemical; assay type: biochemical; conditions: for inhibition at 10 µM: read-out: hMAO-A % inhibition at 10 μM
T3 construct: purchased Sigma Aldrich (Milan, Italy); host or cells: baculovirus-infected insect cells
T3 sequence (P21397 1-527): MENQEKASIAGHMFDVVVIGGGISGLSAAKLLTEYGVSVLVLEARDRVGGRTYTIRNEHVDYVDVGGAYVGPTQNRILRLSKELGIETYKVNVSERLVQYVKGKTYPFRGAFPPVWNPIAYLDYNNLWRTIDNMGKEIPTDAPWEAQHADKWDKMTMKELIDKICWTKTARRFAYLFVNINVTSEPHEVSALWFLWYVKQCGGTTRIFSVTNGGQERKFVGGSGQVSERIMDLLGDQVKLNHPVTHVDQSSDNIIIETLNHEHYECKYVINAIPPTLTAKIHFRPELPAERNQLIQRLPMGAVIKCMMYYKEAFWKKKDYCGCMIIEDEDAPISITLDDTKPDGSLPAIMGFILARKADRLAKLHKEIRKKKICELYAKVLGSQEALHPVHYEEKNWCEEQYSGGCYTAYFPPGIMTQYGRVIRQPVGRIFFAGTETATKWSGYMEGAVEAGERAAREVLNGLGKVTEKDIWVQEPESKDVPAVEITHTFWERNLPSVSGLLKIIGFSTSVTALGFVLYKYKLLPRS
Procedure: as §1
After the addition of human recombinant MAO A (250 U/mg) or MAO B (59 U/mg) and a further 30 min of incubation, NaOH was added, and the fluorescence read at 310/400 nm excitation/emission wavelength. […] IC50 is expressed as mean ± SD of three independent measurements, each one performed in duplicate. For the kinetic study on the inhibition mechanism of MAO B, three diverse scalar concentrations of the inhibitor and seven concentrations of kynuramine were used.
as §3

[2] = system: HCT116, colon cancer cell line; assay: Antiproliferative activity, sulforhodamine-B (SRB) assay, HCT116; assay type: cell-based, human; conditions: Homo sapiens, read-out: Antiproliferative activity IC50, HCT116
Procedure: as §4, §5

human recombinant MAO B = target: T4, human recombinant MAO B (Homo sapiens, UniProt P27338); assay: biochemical; assay type: biochemical; conditions: for MAO B inhibition mechanism: Michaelis-Menten curves' fitting, kynuramine as the substrate; for IC50: hMAO-B IC50, mean ± S.D., determined for compounds with more than 60% inhibition at 10 μM
T4 construct: purchased Sigma Aldrich (Milan, Italy); host or cells: baculovirus-infected insect cells
T4 sequence (P27338 1-520): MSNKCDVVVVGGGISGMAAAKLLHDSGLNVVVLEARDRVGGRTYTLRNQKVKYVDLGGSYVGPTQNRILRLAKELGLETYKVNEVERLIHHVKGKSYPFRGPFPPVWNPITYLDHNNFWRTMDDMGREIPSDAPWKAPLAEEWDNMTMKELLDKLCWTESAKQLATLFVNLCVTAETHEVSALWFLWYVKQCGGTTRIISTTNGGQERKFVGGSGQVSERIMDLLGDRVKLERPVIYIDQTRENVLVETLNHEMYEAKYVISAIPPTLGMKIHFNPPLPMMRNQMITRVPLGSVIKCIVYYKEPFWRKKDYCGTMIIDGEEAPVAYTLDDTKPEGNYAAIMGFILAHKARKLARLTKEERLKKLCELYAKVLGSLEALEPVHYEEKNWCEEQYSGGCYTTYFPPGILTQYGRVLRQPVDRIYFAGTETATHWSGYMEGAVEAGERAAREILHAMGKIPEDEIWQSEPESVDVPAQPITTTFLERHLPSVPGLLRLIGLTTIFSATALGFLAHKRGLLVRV

[3] = system: SK-OV-3, human ovarian carcinoma with intrinsic resistance to cisplatin; assay: Antiproliferative activity, sulforhodamine-B (SRB) assay, SK-OV-3; assay type: cell-based; conditions: read-out: Antiproliferative activity IC50, SK-OV-3
Procedure: as §4, §5

MAO B = system: MAO B; parameters: method as in PMID 32716595; conditions: read-out: MAO B IC50 (previous work); cited from earlier work
AChE = system: AChE; parameters: method as in PMID 32716595; conditions: read-out: AChE IC50 (previous work); cited from earlier work
[4] = MCF7, 72 h exposure, SRB assay, mean ± S.D., >50 = less than 50% growth inhibition at 50 μM
[5] = HCT-116, 72 h exposure, SRB assay, mean ± S.D., >50 = less than 50% growth inhibition at 50 μM
[6] = Homo sapiens, SK-OV-3, 72 h, 72 h exposure, SRB assay, mean ± S.D., >50 = less than 50% growth inhibition at 50 μM

T2 sequence (P06276 29-602): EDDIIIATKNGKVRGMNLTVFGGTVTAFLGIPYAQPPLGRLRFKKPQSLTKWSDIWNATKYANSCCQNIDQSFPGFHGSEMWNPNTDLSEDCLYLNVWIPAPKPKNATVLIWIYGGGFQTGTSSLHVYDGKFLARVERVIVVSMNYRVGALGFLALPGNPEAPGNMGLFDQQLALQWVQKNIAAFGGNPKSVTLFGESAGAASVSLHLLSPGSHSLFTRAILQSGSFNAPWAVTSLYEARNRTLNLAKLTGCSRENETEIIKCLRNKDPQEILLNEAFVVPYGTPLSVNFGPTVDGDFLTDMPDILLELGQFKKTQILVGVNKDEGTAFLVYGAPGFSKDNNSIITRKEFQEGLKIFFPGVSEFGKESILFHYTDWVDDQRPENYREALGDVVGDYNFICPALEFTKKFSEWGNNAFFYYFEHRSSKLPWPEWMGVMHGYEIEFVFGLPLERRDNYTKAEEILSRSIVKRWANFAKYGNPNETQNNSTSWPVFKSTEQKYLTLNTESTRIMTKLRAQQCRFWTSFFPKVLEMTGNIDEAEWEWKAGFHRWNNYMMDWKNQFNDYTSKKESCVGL
T1 sequence (P22303 32-614): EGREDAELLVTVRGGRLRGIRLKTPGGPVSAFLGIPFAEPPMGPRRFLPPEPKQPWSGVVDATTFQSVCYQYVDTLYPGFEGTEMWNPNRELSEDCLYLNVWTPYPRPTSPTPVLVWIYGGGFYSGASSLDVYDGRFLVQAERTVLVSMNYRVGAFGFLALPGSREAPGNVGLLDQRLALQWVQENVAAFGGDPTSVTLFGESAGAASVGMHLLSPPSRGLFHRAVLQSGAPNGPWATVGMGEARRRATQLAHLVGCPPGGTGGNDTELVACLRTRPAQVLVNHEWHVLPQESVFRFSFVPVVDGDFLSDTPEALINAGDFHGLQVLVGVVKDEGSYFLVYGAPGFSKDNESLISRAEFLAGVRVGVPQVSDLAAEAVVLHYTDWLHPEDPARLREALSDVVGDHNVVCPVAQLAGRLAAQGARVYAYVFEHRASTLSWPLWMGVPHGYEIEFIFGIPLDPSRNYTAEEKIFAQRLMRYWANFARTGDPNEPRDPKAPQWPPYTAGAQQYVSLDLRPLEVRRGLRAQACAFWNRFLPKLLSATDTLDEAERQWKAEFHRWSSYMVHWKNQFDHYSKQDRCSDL

SMILES	inhibition at 10 µM (human recombinant AChE) [%]	inhibition at 10 µM (BChE from human serum) [%]	IC50 [1, 4] [µM]	inhibition at 10 µM (human recombinant MAO A) [%]	IC50 [2, 5] [µM]	IC50 (human recombinant MAO B)	IC50 [3, 6] [µM]	melting point [°C]	further results
CN1CCC2=C(C1)C(c1c[nH]c3ccc(Br)cc13)c1cc(Cl)ccc1O2 (stereo not shown) [6c, 8-Chloro-10-(5-bromo-1H-indole-3-yl)-2-methyl-2,3,4,10-tetrahydro-1H-chromeno[3,2-c]pyridine]	37	23	4.83 ± 0.79	29	9.4 ± 0.22	3.51 ± 0.2 µM	11		Ki (human recombinant MAO B): 6.47 ± 0.22 µM; MAO B inhibition mechanism (human recombinant MAO B): competitive; IC50 ([3]; 72 h exposure, SRB assay, mean ± S.D., >50 = less than 50% growth inhibition at 50 μM): 11.3 ± 0.32 µM
CN1CC[C@@]2(O)Oc3ccc(Cl)cc3[C@@H](O)[C@H]2C1								172 to 173	
CN1CC=C2Oc3ccc(Br)cc3C=C2C1 [2b, 8-Bromo-2,3-dihydro-2-methyl-1H-chromeno[3,2-c]pyridine]	31					7.88 ± 0.02 µM			hBChE % inhibition at 10 μM (BChE from human serum): n.i.; IC50 ([1]; MCF7, 72 h): 42.9 ± 4.82 µM; IC50 (human recombinant MAO A): 0.703 ± 0.012 µM; Selectivity for MAO A over MAO B (human recombinant MAO A; from MAO A and MAO B inhibition data): about tenfold; IC50 ([2]; HCT-116, 72 h): > 50 µM; IC50 ([3]; Homo sapiens, SK-OV-3, 72 h): > 50 µM
CN1CC[C@@]2(O)Oc3ccc(Cl)cc3[C@@H](O)[C@@H]2C1								167 to 168	
COc1cccc2c1O[C@]1(O)CCN(C)C[C@@H]1[C@@H]2O								134 to 135	
CN1CCC2=C(C1)C(c1c[nH]c3ccccc13)c1cc(Cl)ccc1O2 (stereo not shown) [6a, 8-Chloro-10-(1H-indole-3-yl)-2-methyl-2,3,4,10-tetrahydro-1H-chromeno[3,2-c]pyridine]	53	38	4.8 ± 0.81	21	8.62 ± 2.21	7.3 ± 0.65 µM	14.7 ± 2.81		
CC(C)N1CCc2oc3ccc(Br)cc3c(=O)c2C1									IC50 (MAO B): 2.23 µM; IC50 (AChE): 3.22 µM
CCOc1cccc2c(=O)c3c(oc12)CCN(Cc1ccccc1)C3									IC50 (MAO B): 0.89 µM
CCN1C=Cc2oc3ccccc3c(=O)c2C1C#CC(F)(F)F (stereo not shown) [3c, 2-Ethyl-1-(3,3,3-trifluoroprop-1-yn-1-yl)-1,2-dihydro-10H-chromeno[3,2-c]pyridin-10-one]		15	27.8 ± 9.6	20	47.2 ± 5.42		> 50		hAChE % inhibition at 10 μM (human recombinant AChE): n.i.; inhibition at 10 µM (human recombinant MAO B; read-out: hMAO-B % inhibition at 10 μM): 26%
CN1CC[C@@]2(O)Oc3ccc([N+](=O)[O-])cc3[C@@H](O)[C@H]2C1								158 to 159	
CN1CCC2=C(C1)C(C[N+](=O)[O-])c1cc(Br)ccc1O2 (stereo not shown)								140 to 142	
COc1cccc2c(=O)c3c(oc12)C=CN(C)C3C#Cc1ccccc1 (stereo not shown) [3b, 6-Metoxy-2-methyl-1-(phenylethinyl)-1H-chromeno[3,2-c]pyridine-10(2H)-one]	39	19	39.7 ± 11.3	32	36.1 ± 2.1	0.63 µM and 0.626 µM	> 50		Ki (human recombinant MAO B): 1.41 ± 0.21 µM; MAO B inhibition mechanism (human recombinant MAO B): competitive; MAO B/A selectivity (human recombinant MAO B; from MAO B and MAO A inhibition data): more than twentyfold
COc1ccc2[nH]cc(C3C4=C(CCN(C)C4)Oc4ccc(Cl)cc43)c2c1 (stereo not shown) [6b, 8-Chloro-10-(5-metoxy-1H-indole-3-yl)-2-methyl-2,3,4,10-tetrahydro-1H-chromeno[3,2-c]pyridine]	53	15	6.62 ± 2.7	21	18.6 ± 2.22	4.72 ± 0.1 µM	22.3 ± 1.42		
COc1cccc2c1O[C@]1(O)CCN(C)C[C@H]1[C@@H]2O								148 to 149	
